Reference: US7589099B2, “7-t-butoxyiminomethylcamptothecin conjugated in position 20 with integrin antagonists” (priority 2004, dated 2009)
Like-named read-outs stand apart in the source and are kept apart here. Blank lines part the entries; values can stand above or below the compound they belong to.

Columns and labels:
[1] = test system: PC3 human prostate carcinoma; experiment: cells; format: cell-based
Method: (§1) To evaluate the effect of the compound on survival cells, the sulphorodamine B test was used. To test the effects of the compounds on cell growth, PC3 human prostate carcinoma, A498 human renal carcinoma, A2780 human ovarian carcinoma cells and NCI-H460 non-small cell lung carcinoma were used. A2780, NCI-H460 and PC3 tumor cells were grown RPMI 1640 containing 10% fetal bovine serum (GIBCO), whereas A498 tumor cells were grown in EMEM containing 10% fetal bovine serum (GIBCO).
(§2) Tumor cells were seeded in 96-well tissue culture plates (Corning) at approximately 10% confluence and were allowed to attach and recover for at least 24 h. […] The plates were incubated for 72 h at 37° C. or 2 h followed by 72 h of recovery. At the end of the treatment, the plates were washed by removal of the surnatant and addition of PBS 3 times. 200 μl PBS and 50 μl of cold 80% TCA were added. The plates were incubated on ice for at least 1 h. TCA was removed, the plates were washed 3 times for immersion in distilled-water and dried on paper and at 40° C. for 5 min.
(§3) Then 200 μl of 0.4% sulphorodamine B in 1% acetic acid were added. The plates were incubated at room temperature for other 30 min. Sulphorodamine B was removed, the plates were washed for immersion in 1% acetic acid for 3 times, then they were dried on paper and at 40° C. for 5 min.
(§4) Then 200 μl Tris 10 mM were added, the plates were kept under stirring for 20 min. The survival cell was determined as optical density by a Multiskan spectrofluorimeter at 540 nm. The amount of cells killed was calculated as the percentage decrease in sulphorodamine B binding compared with control cultures.
(§5) The IC50 values were calculated with the “ALLFIT” program.

[2] = test system: A498 human renal carcinoma; experiment: cells; format: cell-based
Method: as §1, §2, §3, §4, §5

[3] = test system: A2780 human ovarian carcinoma cells; experiment: cells; format: cell-based
Method: as §1, §2, §3, §4, §5

[4] = test system: NCI-H460 non-small cell lung carcinoma; experiment: Cytotoxicity, sulphorodamine B test, NCI-H460; format: cell-based, human; conditions: 2 h of treatment (followed by 72 h of recovery), read-out: NCI-H460 IC50 ± SD
Method: as §1
as §2, with “TCA was removed, the plates were washed 3 times for immersion in distilled-water and dried on paper and at 40° C. for 5 min.” left out
as §4, §5

purified αvβ3 receptor = molecular target: T1, purified αvβ3 receptor (Homo sapiens, UniProt P05106+P06756); experiment: Binding to integrin αvβ3 receptors ([125I]echistatin competition)
T1 construct: purchased Chemicon CC1020
Method: (§6) An aliquot of 100 μl was added to 96-well plates and incubated overnight at +4° C. Plates were washed once with buffer (50 mM Tris, pH 7,4, 100 mM NaCl, 2 mM CaCl2, 1 mM MgCl2, 1 mM MnCl2, 1% bovine serum albumin) and then incubated for another 2 hours at room temperature. Plates were washed twice with the same buffer and incubated for 3 hours at room temperature with the radioactive ligand [^125I]echistatin (Amersham Pharmacia Biotech) 0.05 nM in the presence of competition ligands. At the end of incubation, the wells were washed and the radioactivity determined using a gamma counter (Packard). Non-specific binding of the ligand was determined in the presence of excess cold echistatin (1 μM).
(§7) The IC50 parameter was elaborated using “ALLFIT” software.

purified αvβ5 receptor = molecular target: T2, purified αvβ5 receptor (Homo sapiens, UniProt P06756+P18084); experiment: Binding to integrin αvβ5 receptors ([125I]echistatin competition)
T2 construct: purchased Chemicon CC1020
Method: as §6, with “7.4,” for “7,4,”, “0.15” for “0.05”, “Non-specific ligand” for “Non-specific”, “binding” for “binding of the ligand”
as §7

Compound: CC[C@@]1(OC(=O)[C@@H](NC(=O)[C@H](CC(=O)O)NC(=O)OC(C)(C)C)C(C)C)C(=O)OCc2c1cc1n(c2=O)Cc2c-1nc1ccccc1c2/C=N/OC(C)(C)C [ST2676, 20-O-Val-Asp-gimatecan]
IC50 ([1]; Homo sapiens, 72 h of treatment, read-out: PC3 IC50 ± SD): 38 ± 4 nM
IC50 ([2]; Homo sapiens, A498, 72 h of treatment, read-out: A498 IC50 ± SD): 47 ± 5 nM
IC50 ([3]; Homo sapiens, A2780, 72 h of treatment, read-out: A2780 IC50 ± SD): < 0.97 nM
IC50 ([4]; Homo sapiens, NCI-H460): 170 ± 20 nM

Compound: CC[C@@]1(OC(=O)[C@@H](NC(=O)CCC(=O)NCc2ccc(C[C@@H]3NC(=O)C(Cc4ccccc4)NC(=O)[C@H](CC(=O)O)NC(=O)CNC(=O)[C@H](CCCNC(=N)N)NC3=O)cc2)C(C)C)C(=O)OCc2c1cc1n(c2=O)Cc2c-1nc1ccccc1c2/C=N/OC(C)(C)C (stereo partly drawn) [ST2670]
IC50 (purified αvβ3 receptor): 47.7 ± 0.9 nM
IC50 ([1]; 72 h): 9600 ± 600 nM
IC50 ([2]; 72 h): 1600 ± 300 nM
IC50 ([3]; 72 h): 400 nM
IC50 (purified αvβ5 receptor): 74 ± 0.8 nM

IC50 (purified αvβ5 receptor; RGD peptides, [125I]echistatin 0.15 nM, read-out: αvβ5 IC50 ± SD): 0.9 ± 0.005 nM
Compound: CN1C(=O)[C@@H](Cc2ccccc2)NC(=O)[C@H](CC(=O)O)NC(=O)CNC(=O)[C@H](CCCNC(=N)N)NC(=O)[C@@H]1Cc1ccc(CN)cc1 [ST2700]

Compound: 20-O-Val-gimatecan [ST2678]
IC50 [4]: 25 ± 2 nM

Compound: CC[C@@]1(OC(=O)[C@@H](NC(=O)[C@@H](N)CC(=O)NCc2ccc(C[C@@H]3NC(=O)C(Cc4ccccc4)NC(=O)[C@H](CC(=O)O)NC(=O)CNC(=O)[C@H](CCCNC(=N)N)NC3=O)cc2)C(C)C)C(=O)OCc2c1cc1n(c2=O)Cc2c-1nc1ccccc1c2/C=N/OC(C)(C)C (stereo partly drawn) [ST2671]
IC50 (purified αvβ3 receptor): 22.8 ± 1.2 nM
IC50 ([1]; 72 h): 350 ± 80 nM
PC3 IC50 ± SD ([1]; 72 h of treatment): potent cytotoxicity
IC50 (purified αvβ5 receptor): 54.2 ± 0.5 nM
